BindingDB's records for doi:10.1021/acs.jmedchem.7b00782 (Jadavpur University, 2018)

Test: Inhibition of LAP (unknown origin)
CC(C)CC(N)P(=O)(O)C(=O)N[C@H](CC(C)C)C(=O)O (some centres undefined) gave a Ki of 56 µM.
With CC(C)CC(N)B1OC(C)(C)C(C)(C)O1 (centres undefined) the Ki was 1.3 µM.
Work on CC(N)B1OC(C)(C)C(C)(C)O1 (centres undefined) yielded a Ki of 90 µM.
Work on CC1(C)OB(C(N)Cc2ccccc2)OC1(C)C (centres undefined) yielded a Ki of 0.05 µM.
